Data taken from patent US20240116951A1, “HETEROCYCLIC COMPOUNDS AND USES THEREOF” (Kumquat Biosciences Inc., priority 2022, published 2024).

What was measured:
Assay type in all cases: binding
[1] = target: T1, KRAS G12D (Homo sapiens, UniProt P01116, G12D); experiment: HTRF assay of K-Ras G12D interaction with SOS1 (PPI-HTRF); details: HTRF, 5 nM KRAS G12D; read-out: PPI-HTRF-5 nM KRAS G12D
T1 construct: made in house; host or cells: E. coli, e.g. BL21 (DE3)
In short: (§1)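 HTRF on GST-K-Ras/His-hSOS1 was measured after ≥10 min in pH 7.4 HEPES buffer. IC50 values were derived from the ratiometric emission signal.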

[2] = target: T2, KRAS G12S (Homo sapiens, UniProt P01116, G12S); experiment: HTRF assay of K-Ras G12S interaction with SOS1 (PPI-HTRF); details: 5 nM KRAS G12S, read-out: PPI-HTRF-5 nM KRAS G12S
T2 construct: made in house; host or cells: E. coli, e.g. BL21 (DE3)
In short: as §1

[3] = target: T3, KRAS WT (Homo sapiens, UniProt P01116); experiment: HTRF assay of wildtype K-Ras interaction with SOS1 (PPI-HTRF); details: HTRF, 5 nM KRAS WT; read-out: PPI-HTRF-5 nM KRAS WT
T3 construct: made in house; host or cells: E. coli, e.g. BL21 (DE3)
In short: as §1

T1 sequence (P01116 1-188 isoform P01116-2 G12D): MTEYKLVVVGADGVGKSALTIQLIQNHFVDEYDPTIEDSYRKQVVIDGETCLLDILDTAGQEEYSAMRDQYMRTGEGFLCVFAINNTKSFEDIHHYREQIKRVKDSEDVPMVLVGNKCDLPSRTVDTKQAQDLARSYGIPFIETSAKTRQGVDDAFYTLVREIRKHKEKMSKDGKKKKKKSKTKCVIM
T2 sequence (P01116 1-188 isoform P01116-2 G12S): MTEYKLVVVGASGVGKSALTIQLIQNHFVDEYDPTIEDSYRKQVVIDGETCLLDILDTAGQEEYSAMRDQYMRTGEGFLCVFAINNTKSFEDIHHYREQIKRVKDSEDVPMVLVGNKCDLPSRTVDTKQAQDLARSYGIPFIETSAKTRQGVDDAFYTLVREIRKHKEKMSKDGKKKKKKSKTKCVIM
T3 sequence (P01116 1-188 isoform P01116-2): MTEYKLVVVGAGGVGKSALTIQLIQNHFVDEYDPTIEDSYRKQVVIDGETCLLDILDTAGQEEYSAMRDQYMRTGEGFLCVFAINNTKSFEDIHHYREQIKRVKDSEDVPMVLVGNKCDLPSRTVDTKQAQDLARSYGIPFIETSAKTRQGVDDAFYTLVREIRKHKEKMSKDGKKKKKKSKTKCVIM

For `Nc1nc2c(-c3c(Cl)cc4c(N5CCC6(CCN6C(=O)n6cncn6)C5)nc(OC[C@@]56CCCN5C[C@H](F)C6)nc4c3F)ccc(F)c2s1` (stereo partly drawn) [Compound 264, (6-(7-(2-amino-7-fluorobenzo[d]thiazol-4-yl)-6-chloro-8-fluoro-2-(((2R,7aS)-2-fluorotetrahydro-1H-pyrrolizin-7a(5H)-yl)methoxy)quinazolin-4-yl)-1,6-diazaspiro[3.4]octan-1-yl)(1H-1,2,4-triazol-1-yl)methanone], the IC50 [1] was < 5 µM, the IC50 [2] was < 5 µM and the IC50 [3] was < 5 µM.
With `Nc1nc2c(-c3c(Cl)cc4c(N5CCC6(CCN6)CC5)nc(OC[C@@]56CCCN5C[C@H](F)C6)nc4c3F)ccc(F)c2s1` [Compound 265, 4-(6-chloro-8-fluoro-2-(((2R,7aS)-2-fluorotetrahydro-1H-pyrrolizin-7a(5H)-yl)methoxy)-4-(1,7-diazaspiro[3.5]nonan-7-yl)quinazolin-7-yl)-7-fluorobenzo[d]thiazol-2-amine] the IC50 [1] was < 5 µM, the IC50 [2] was > 5 µM and the IC50 [3] was < 5 µM.
For `Cc1nc(C(C)C)nn1C(=O)N1CCC12CCN(c1nc(OC[C@@]34CCCN3C[C@H](F)C4)nc3c(F)c(-c4ccc(F)c5sc(N)c(C#N)c45)c(Cl)cc13)C2` (stereo partly drawn) [Compound 266, 2-amino-4-(6-chloro-8-fluoro-2-(((2R,7aS)-2-fluorotetrahydro-1H-pyrrolizin-7a(5H)-yl)methoxy)-4-(1-(3-isopropyl-5-methyl-1H-1,2,4-triazole-1-carbonyl)-1,6-diazaspiro[3.4]octan-6-yl)quinazolin-7-yl)-7-fluorobenzo[b]thiophene-3-carbonitrile], the IC50 [1] was < 5 µM, the IC50 [2] was < 5 µM and the IC50 [3] was < 5 µM.
In the case of `N#Cc1c(N)sc2c(F)ccc(-c3c(F)c4nc(OC[C@@]56CCCN5C[C@H](F)C6)nc(N5CCC6(CCN6C(=O)n6cncn6)C5)c4c(=O)n3C3CC3)c12` (stereo partly drawn) [Compound 267, 4-(4-(1-(1H-1,2,4-triazole-1-carbonyl)-1,6-diazaspiro[3.4]octan-6-yl)-6-cyclopropyl-8-fluoro-2-(((2R,7aS)-2-fluorotetrahydro-1H-pyrrolizin-7a(5H)-yl)methoxy)-5-oxo-5,6-dihydropyrido[4,3-d]pyrimidin-7-yl)-2-amino-7-fluorobenzo[b]thiophene-3-carbonitrile], the IC50 [1] is reported as < 5 µM, the IC50 [2] is reported as < 5 µM and the IC50 [3] is reported as < 5 µM.
`C#Cc1c(F)ccc2cc(O)cc(-c3ncc4c(N5CCC6(CCN6)C5)nc(OC[C@@]56CCCN5C[C@H](F)C6)nc4c3F)c12` (stereo partly drawn) [Compound 268, 5-ethynyl-6-fluoro-4-(8-fluoro-2-(((2R,7aS)-2-fluorotetrahydro-1H-pyrrolizin-7a(5H)-yl)methoxy)-4-(1,6-diazaspiro[3.4]octan-6-yl)pyrido[4,3-d]pyrimidin-7-yl)naphthalen-2-ol] was tested, and the IC50 [1] was < 5 µM, the IC50 [2] was < 5 µM and the IC50 [3] was < 5 µM.
For `Nc1nc2c(-c3c(Cl)cc4c(N5CCC6(CC5)CCN6C(=O)n5cncn5)nc(OC[C@@]56CCCN5C[C@H](F)C6)nc4c3F)ccc(F)c2s1` [Compound 269, (7-(7-(2-amino-7-fluorobenzo[d]thiazol-4-yl)-6-chloro-8-fluoro-2-(((2R,7aS)-2-fluorotetrahydro-1H-pyrrolizin-7a(5H)-yl)methoxy)quinazolin-4-yl)-1,7-diazaspiro[3.5]nonan-1-yl)(1H-1,2,4-triazol-1-yl)methanone], the IC50 [1] was < 5 µM, the IC50 [2] was < 5 µM and the IC50 [3] was < 5 µM.
With `C#Cc1c(F)ccc2cc(O)cc(-c3ncc4c(N5CCC6(CCN6C(=O)n6cncn6)C5)nc(OC[C@@]56CCCN5C[C@H](F)C6)nc4c3F)c12` (stereo partly drawn) [Compound 270, (6-(7-(8-ethynyl-7-fluoro-3-hydroxynaphthalen-1-yl)-8-fluoro-2-(((2R,7aS)-2-fluorotetrahydro-1H-pyrrolizin-7a(5H)-yl)methoxy)pyrido[4,3-d]pyrimidin-4-yl)-1,6-diazaspiro[3.4]octan-1-yl)(1H-1,2,4-triazol-1-yl)methanone] the IC50 [1] was < 5 µM, the IC50 [2] was < 5 µM and the IC50 [3] was < 5 µM.
In the case of `C[C@H](Oc1nc(N2CCC3(CCN3C(=O)[C@@H]3C[C@H]3F)C2)c2cc(Cl)c(-c3ccc(F)c4sc(N)c(C#N)c34)c(F)c2n1)[C@@H]1CCCN1C` (stereo partly drawn) [Compound 271, 2-amino-4-(6-chloro-8-fluoro-4-(1-((1S,2R)-2-fluorocyclopropane-1-carbonyl)-1,6-diazaspiro[3.4]octan-6-yl)-2-((S)-1-((S)-1-methylpyrrolidin-2-yl)ethoxy)quinazolin-7-yl)-7-fluorobenzo[b]thiophene-3-carbonitrile], the IC50 [1] is reported as < 5 µM, the IC50 [2] is reported as < 5 µM and the IC50 [3] is reported as < 5 µM.
In the case of `Nc1nc2c(-c3c(Cl)cc4c(N5CC6(CCN6C(=O)n6cncn6)C5)nc(OC[C@@]56CCCN5C[C@H](F)C6)nc4c3F)ccc(F)c2s1` [Compound 273, (6-(7-(2-amino-7-fluorobenzo[d]thiazol-4-yl)-6-chloro-8-fluoro-2-(((2R,7aS)-2-fluorotetrahydro-1H-pyrrolizin-7a(5H)-yl)methoxy)quinazolin-4-yl)-1,6-diazaspiro[3.3]heptan-1-yl)(1H-1,2,4-triazol-1-yl)methanone], the IC50 [1] is reported as < 5 µM, the IC50 [2] is reported as < 5 µM and the IC50 [3] is reported as < 5 µM.
With `C[C@H](Oc1nc(N2CCC3(CCN3C(=O)c3ccnn3C)C2)c2cc(Cl)c(-c3ccc(F)c4sc(N)c(C#N)c34)c(F)c2n1)[C@@H]1CCCN1C` (stereo partly drawn) [Compound 274, 2-amino-4-(6-chloro-8-fluoro-4-(1-(1-methyl-1H-pyrazole-5-carbonyl)-1,6-diazaspiro[3.4]octan-6-yl)-2-((S)-1-((S)-1-methylpyrrolidin-2-yl)ethoxy)quinazolin-7-yl)-7-fluorobenzo[b]thiophene-3-carbonitrile] the IC50 [1] was < 5 µM, the IC50 [2] was < 5 µM and the IC50 [3] was < 5 µM.
`N#Cc1c(N)sc2c(F)ccc(-c3c(Cl)cc4c(N5CCCC6(CCN6C(=O)n6cncn6)C5)nc(OC[C@@]56CCCN5C[C@H](F)C6)nc4c3F)c12` (stereo partly drawn) [Compound 275, 4-(4-(1-(1H-1,2,4-triazole-1-carbonyl)-1,6-diazaspiro[3.5]nonan-6-yl)-6-chloro-8-fluoro-2-(((2R,7aS)-2-fluorotetrahydro-1H-pyrrolizin-7a(5H)-yl)methoxy)quinazolin-7-yl)-2-amino-7-fluorobenzo[b]thiophene-3-carbonitrile] was tested, and the IC50 [1] was < 5 µM, the IC50 [2] was < 5 µM and the IC50 [3] was < 5 µM.
`Nc1nc2c(-c3c(Cl)cc4c(N5CCCC6(CCN6)CC5)nc(OC[C@@]56CCCN5C[C@H](F)C6)nc4c3F)ccc(F)c2s1` (stereo partly drawn) [Compound 276, 4-(6-chloro-8-fluoro-2-(((2R,7aS)-2-fluorotetrahydro-1H-pyrrolizin-7a(5H)-yl)methoxy)-4-(1,7-diazaspiro[3.6]decan-7-yl)quinazolin-7-yl)-7-fluorobenzo[d]thiazol-2-amine] was tested, and the IC50 [1] was < 5 µM, the IC50 [2] was < 5 µM and the IC50 [3] was < 5 µM.
In the case of `C#Cc1c(F)ccc2cc(O)cc(-c3ccc4c(N5CCC6(CCN6C(=O)n6cncn6)C5)nc(OC[C@@]56CCCN5C[C@H](F)C6)nc4c3F)c12` (stereo partly drawn) [Compound 277, (6-(7-(8-ethynyl-7-fluoro-3-hydroxynaphthalen-1-yl)-8-fluoro-2-(((2R,7aS)-2-fluorotetrahydro-1H-pyrrolizin-7a(5H)-yl)methoxy)quinazolin-4-yl)-1,6-diazaspiro[3.4]octan-1-yl)(1H-1,2,4-triazol-1-yl)methanone], the IC50 [1] is reported as < 5 µM, the IC50 [2] is reported as < 5 µM and the IC50 [3] is reported as < 5 µM.
`Cc1cc(N)c(F)c(-c2c(Cl)cc3c(N4CCC5(CCN5C(=O)n5cncn5)C4)nc(OC[C@@]45CCCN4C[C@H](F)C5)nc3c2F)c1C(F)(F)F` (stereo partly drawn) [Compound 279, (6-(7-(3-amino-2-fluoro-5-methyl-6-(trifluoromethyl)phenyl)-6-chloro-8-fluoro-2-(((2R,7aS)-2-fluorotetrahydro-1H-pyrrolizin-7a(5H)-yl)methoxy)quinazolin-4-yl)-1,6-diazaspiro[3.4]octan-1-yl)(1H-1,2,4-triazol-1-yl)methanone] was tested, and the IC50 [1] was > 5 µM, the IC50 [2] was > 5 µM and the IC50 [3] was > 5 µM.
For `C[C@H](Oc1nc(N2CCC3(CCN3C(=O)C3CC3(F)F)C2)c2cc(Cl)c(-c3ccc(F)c4sc(N)c(C#N)c34)c(F)c2n1)[C@@H]1CCCN1C` (stereo partly drawn) [Compound 280, 2-amino-4-(6-chloro-4-(1-(2,2-difluorocyclopropane-1-carbonyl)-1,6-diazaspiro[3.4]octan-6-yl)-8-fluoro-2-((S)-1-((S)-1-methylpyrrolidin-2-yl)ethoxy)quinazolin-7-yl)-7-fluorobenzo[b]thiophene-3-carbonitrile], the IC50 [1] was < 5 µM, the IC50 [2] was < 5 µM and the IC50 [3] was < 5 µM.
With `C[C@H](Oc1nc(N2CCCC3(CCN3C(=O)c3ccnn3C)C2)c2cc(Cl)c(-c3ccc(F)c4sc(N)c(C#N)c34)c(F)c2n1)[C@@H]1CCCN1C` (stereo partly drawn) [Compound 282, 2-amino-4-(6-chloro-8-fluoro-4-(1-(1-methyl-1H-pyrazole-5-carbonyl)-1,6-diazaspiro[3.5]nonan-6-yl)-2-((S)-1-((S)-1-methylpyrrolidin-2-yl)ethoxy)quinazolin-7-yl)-7-fluorobenzo[b]thiophene-3-carbonitrile] the IC50 [1] was < 5 µM, the IC50 [2] was < 5 µM and the IC50 [3] was < 5 µM.
In the case of `N#Cc1c(N)sc2c(F)ccc(-c3c(Cl)cc4c(N5CCC6(C5)N(C(=O)n5cncn5)CC6(F)F)nc(OC[C@@]56CCCN5C[C@H](F)C6)nc4c3F)c12` (stereo partly drawn) [Compound 283, 2-amino-4-(6-chloro-4-(3,3-difluoro-1-(1H-1,2,4-triazole-1-carbonyl)-1,6-diazaspiro[3.4]octan-6-yl)-8-fluoro-2-(((2R,7aS)-2-fluorotetrahydro-1H-pyrrolizin-7a(5H)-yl)methoxy)quinazolin-7-yl)-7-fluorobenzo[b]thiophene-3-carbonitrile], the IC50 [1] is reported as < 5 µM, the IC50 [2] is reported as < 5 µM and the IC50 [3] is reported as < 5 µM.
